In PubChem BioAssay (NCI) one finds TGI data, which are given here for 13 compounds.

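Step 1: Grow cells in 96-well plates. Step 2: Expose to compound for 48 hours at 5 concentrations. Step 3: Interpolate endpoints linearly; if unreached, use highest concentration. The concentration for full growth arrest is given as TGI.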 Where a SMILES comes first, the peptide text is derived from it.

Among the test systems are U251 CNS; SF-268 CNS; NCI-H23 lung; NCI/ADR-RES ovarian; NCI-H522 lung; LOX IMVI melanoma; HT29 colon; T-47D breast; SNB-19 CNS; SK-OV-3 ovarian.
Holding throughout (experiment): NCI tumour cell line growth inhibition, 48 h

As to `C[n+]1c2ccccc2n2c3ccccc3c(NCc3ccco3)c(C#N)c21`, the TGI in the experiment on U251 CNS was determined as 13 µM; with SF-268 CNS, 11.3 µM; in the experiment with NCI-H23 lung, 8.92 µM; in the experiment on NCI/ADR-RES ovarian, 9.55 µM; in the experiment on NCI-H522 lung, 2.83 µM; in the experiment on LOX IMVI melanoma, 3.65 µM. The TGI in the experiment on HT29 colon is > 100 µM; with T-47D breast, > 28.7 µM; in the experiment on SNB-19 CNS it was 26.6 µM; in the experiment with SK-OV-3 ovarian it was 39.8 µM.
As for `CCN(CC)CCOCCOCC1(c2ccc(Cl)c(Cl)c2)CCCCC1`, the TGI was determined as 21.5 µM with U251 CNS; 25.3 µM with SF-268 CNS; 24.5 µM in the experiment with NCI-H23 lung; 24.3 µM in the experiment on NCI/ADR-RES ovarian; 22.1 µM in the experiment with NCI-H522 lung; 21.4 µM with LOX IMVI melanoma. In addition, the TGI was 7.53 µM in the experiment on HT29 colon, 17.7 µM in the experiment with T-47D breast, 26.4 µM in the experiment on SNB-19 CNS and 24.5 µM with SK-OV-3 ovarian.
For the compound `Cc1ccc(F)c2[nH]c(-c3ccccc3)cc(=O)c12`, the TGI in the experiment on U251 CNS is > 100 µM; in the experiment on SF-268 CNS, > 67 µM; in the experiment with NCI-H23 lung, > 65.8 µM; with NCI/ADR-RES ovarian it was > 100 µM; in the experiment with NCI-H522 lung it was 38.1 µM; in the experiment on LOX IMVI melanoma, > 100 µM. In addition, the TGI in the experiment with HT29 colon, with T-47D breast, in the experiment with SNB-19 CNS and with SK-OV-3 ovarian was > 100 µM each time.
For `COc1c(O)cc2c(c1O)C(=O)C(Cc1ccc(O)cc1)CO2` (stereo not given), the TGI with U251 CNS, in the experiment with SF-268 CNS, in the experiment with NCI-H23 lung, in the experiment with NCI/ADR-RES ovarian, in the experiment with NCI-H522 lung and in the experiment on LOX IMVI melanoma was > 100 µM each time. Also, the TGI in the experiment with HT29 colon, with T-47D breast, in the experiment on SNB-19 CNS and in the experiment on SK-OV-3 ovarian was > 100 µM throughout.
Take `COc1ccc2[nH]c3c(c2c1)CCc1c(OC)cccc1-3`: the TGI in the experiment on U251 CNS, in the experiment on SF-268 CNS, with NCI-H23 lung, with NCI/ADR-RES ovarian, with NCI-H522 lung and in the experiment with LOX IMVI melanoma was > 100 µM each time. The TGI in the experiment with HT29 colon, in the experiment with T-47D breast, in the experiment with SNB-19 CNS and in the experiment on SK-OV-3 ovarian was > 100 µM in each case.
Turning to `Fc1ccccc1-c1cc(=S)c2cc3c(cc2[nH]1)OCO3`, the TGI in the experiment with U251 CNS was > 100 µM; in the experiment on SF-268 CNS, > 100 µM; with NCI-H23 lung, > 100 µM; with NCI/ADR-RES ovarian it was 63.2 µM; in the experiment on NCI-H522 lung it was 57 µM; in the experiment on LOX IMVI melanoma, > 100 µM. In addition, the TGI with HT29 colon is 40.2 µM; in the experiment with T-47D breast, > 100 µM; in the experiment with SNB-19 CNS it was 98.1 µM; in the experiment with SK-OV-3 ovarian, > 100 µM.
For the compound `COP(=O)(/C=C/C(NC(=O)C(Cl)(Cl)Cl)c1ccccc1)OC` (stereo not given), the TGI in the experiment with U251 CNS, in the experiment on SF-268 CNS, in the experiment with NCI-H23 lung, in the experiment with NCI/ADR-RES ovarian, with NCI-H522 lung and in the experiment on LOX IMVI melanoma was > 100 µM in each case. For the same compound, the TGI in the experiment with HT29 colon, in the experiment with T-47D breast, in the experiment with SNB-19 CNS and in the experiment on SK-OV-3 ovarian was > 100 µM in each case.
In the case of `CCc1cc2c(cc1C(=O)CCC(=O)O)CC1(C2)Cc2cc(CC)c(C(=O)CCC(=O)O)cc2C1`, the TGI with U251 CNS, in the experiment with SF-268 CNS, in the experiment with NCI-H23 lung, with NCI/ADR-RES ovarian, with NCI-H522 lung and in the experiment with LOX IMVI melanoma was > 100 µM in each case. The TGI with HT29 colon, with T-47D breast, with SNB-19 CNS and with SK-OV-3 ovarian was > 100 µM each time.
Take `CCCC(=O)Oc1c2ccsc2c(OC(=O)CCC)c2ccsc12`: the TGI in the experiment on U251 CNS was 4.4 µM; with SF-268 CNS, 10.7 µM; in the experiment with NCI-H23 lung, 3.64 µM; in the experiment on NCI/ADR-RES ovarian it was 4.55 µM; with NCI-H522 lung it was 4.85 µM; in the experiment with LOX IMVI melanoma, 10.7 µM. Moreover, the TGI in the experiment on HT29 colon was found to be 12 µM; in the experiment on T-47D breast it was 12.1 µM; in the experiment on SNB-19 CNS, 5.28 µM; with SK-OV-3 ovarian it was 10.4 µM.
On to `CC(=O)NC(CS)C(=O)NC(CO)C(=O)NC(CO)C(=O)NC(Cc1c[nH]c2ccccc12)C(=O)N1CCCC1C(=O)NC(CO)C(=O)NC(Cc1c[nH]c2ccccc12)C(=O)NC(Cc1c[nH]cn1)C(=O)NC(CO)C(=O)NC(Cc1c[nH]c2ccccc12)C(=O)NCC(=O)NCC(=O)NC(C)C(=O)NC(CCC(N)=O)C(=O)NC(CCCCN)C(=O)NC(C)C(=O)NC(CCCNC(=N)N)C(=O)NC(CCCCN)C(N)=O` (stereo not given) (Ac-CSSWPSWHSWGGAQKARK-NH2; configuration not given here), for which the TGI with U251 CNS is 27.7 µM; with SF-268 CNS, 49.6 µM; in the experiment on NCI-H23 lung, 48.8 µM; with NCI/ADR-RES ovarian it was > 50 µM; in the experiment with NCI-H522 lung, > 50 µM; with LOX IMVI melanoma, > 50 µM. Also, the TGI in the experiment with HT29 colon was > 50 µM; in the experiment on T-47D breast, 28.5 µM; with SNB-19 CNS, > 50 µM; with SK-OV-3 ovarian, > 50 µM.
Consider `Cc1nc(-c2cccnc2)sc1C(=O)CC(=O)C(=O)Nc1cccc(NC(=O)C(=O)CC(=O)c2sc(-c3cccnc3)nc2C)n1`, for which the TGI with U251 CNS, with SF-268 CNS, in the experiment on NCI-H23 lung, in the experiment on NCI/ADR-RES ovarian, with NCI-H522 lung and in the experiment with LOX IMVI melanoma was > 100 µM throughout. In addition, the TGI in the experiment on HT29 colon, in the experiment on T-47D breast, with SNB-19 CNS and in the experiment with SK-OV-3 ovarian was > 100 µM each time.
In the case of `CC12CP(=O)(O)CC1C2(Cl)Cl` (stereo not given), the TGI with U251 CNS, in the experiment with SF-268 CNS, in the experiment on NCI-H23 lung, in the experiment on NCI/ADR-RES ovarian, with NCI-H522 lung and in the experiment with LOX IMVI melanoma was > 100 µM each time. In addition, the TGI in the experiment with HT29 colon, with T-47D breast, in the experiment with SNB-19 CNS and in the experiment with SK-OV-3 ovarian was > 100 µM in each case.
With `Nc1ccc2nc3n(c2c1)C(c1c(F)cccc1F)SC3` (stereo not given), the TGI in the experiment on U251 CNS, in the experiment on SF-268 CNS, with NCI-H23 lung, with NCI/ADR-RES ovarian, in the experiment on NCI-H522 lung and with LOX IMVI melanoma was > 100 µM throughout. The TGI in the experiment on HT29 colon, in the experiment with T-47D breast, in the experiment with SNB-19 CNS and with SK-OV-3 ovarian was > 100 µM throughout.
